We go through 1 compound from patent publication US20220220075A1, “SOLID FORM OF AROMATIC COMPOUND AND PREPARATION METHOD THEREFOR” (Sichuan Kelun-Biotech Biopharmaceutical Co., Ltd., priority 2019, published 2022).

One may read the AUC(0-t) as the area under the concentration-time curve up to a stated or last time point. One may read the Cmax as the maximum level reached in the sampled fluid or tissue.

The test system of one data set is HepG2 cells. As to conditions: statement in words; tests disclosed in WO2019105234A1; cited from earlier work.
Data set [1] in a line: High humidity stability test (purity by HPLC, XRPD). It counts as physicochemical. The following applies: 25±2° C., 92.5% RH; for Purity: open dish. How it is done: (§1) In this experimental example, the chemical stability of crystalline form A was studied by high temperature and high humidity test.
(§2) Method for testing purity: high performance liquid chromatography (Chinese Pharmacopoeia, 2015 Edition, Four General Rules 0512) was used to test purify.
(§3) Chromatographic column: phenyl bonded silica gel was used as filler;
(§4) Mobile phase A: 5 mM ammonium acetate (pH 4.0);
(§5) Mobile phase B: Acetonitrile (containing 0.05% acetic acid);
(§6) Detection wavelength: 230 nm.
(§7) Elution condition: gradient elution.
The crystalline form A of the compound of Formula I was evenly spread into an open culture dish with a thickness of ≤5 mm, and placed in a constant temperature incubator at room temperature (25±2° C.) and relative humidity of 92.5% RH. […]

Another data set deals with hERG (Homo sapiens, UniProt Q12809). The following applies: statement in words; tests disclosed in WO2019105234A1; cited from earlier work.
Chain of hERG (Q12809 whole entry): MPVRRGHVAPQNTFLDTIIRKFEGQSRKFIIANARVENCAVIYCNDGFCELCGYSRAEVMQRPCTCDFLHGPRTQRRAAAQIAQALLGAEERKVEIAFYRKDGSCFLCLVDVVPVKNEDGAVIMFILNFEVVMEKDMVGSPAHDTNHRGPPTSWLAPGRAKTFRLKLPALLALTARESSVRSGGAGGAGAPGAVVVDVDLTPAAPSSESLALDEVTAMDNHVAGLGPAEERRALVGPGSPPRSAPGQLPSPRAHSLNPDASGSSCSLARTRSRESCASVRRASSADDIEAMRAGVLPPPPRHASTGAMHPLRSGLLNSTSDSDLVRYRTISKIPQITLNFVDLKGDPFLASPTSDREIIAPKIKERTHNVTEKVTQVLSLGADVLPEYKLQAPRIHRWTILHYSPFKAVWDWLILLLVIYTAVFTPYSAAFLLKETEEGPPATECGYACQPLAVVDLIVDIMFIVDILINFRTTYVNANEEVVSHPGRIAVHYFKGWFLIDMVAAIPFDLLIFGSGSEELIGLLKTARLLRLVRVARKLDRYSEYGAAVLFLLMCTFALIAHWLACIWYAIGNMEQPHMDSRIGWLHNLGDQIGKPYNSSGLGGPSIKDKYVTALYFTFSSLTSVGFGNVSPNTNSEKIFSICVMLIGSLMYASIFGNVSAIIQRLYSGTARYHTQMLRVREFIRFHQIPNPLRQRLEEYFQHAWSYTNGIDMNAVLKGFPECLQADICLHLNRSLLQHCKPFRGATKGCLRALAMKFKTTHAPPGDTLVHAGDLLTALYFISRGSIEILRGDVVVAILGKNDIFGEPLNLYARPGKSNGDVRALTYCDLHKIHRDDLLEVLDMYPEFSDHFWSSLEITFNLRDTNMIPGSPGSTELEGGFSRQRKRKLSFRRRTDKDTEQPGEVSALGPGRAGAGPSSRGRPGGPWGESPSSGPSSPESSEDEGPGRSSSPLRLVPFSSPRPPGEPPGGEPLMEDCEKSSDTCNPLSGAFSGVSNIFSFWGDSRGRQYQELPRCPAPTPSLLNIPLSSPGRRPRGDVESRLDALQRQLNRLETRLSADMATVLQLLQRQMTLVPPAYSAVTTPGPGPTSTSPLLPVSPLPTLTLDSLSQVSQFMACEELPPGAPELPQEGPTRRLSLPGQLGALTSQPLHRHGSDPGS
Data set [2] is described as follows: High temperature stability test (purity by HPLC, XRPD). The following applies: 60° C.; for Purity: sealed glass bottle. It counts as physicochemical. How it is done: as §1, §2, §3, §4, §5, §6, §7
The crystalline form A was placed in a sealed and clean glass bottle, and then the glass bottle was placed in a 60° C. constant temperature drying oven, and samples were taken on the […] and the 30th day, respectively, to detect impurity contents, and the purity results were shown in Table 2.

For another data set, the target named is T1, PPAR δ (Homo sapiens, UniProt Q03181).
T1 sequence (Q03181 1-441): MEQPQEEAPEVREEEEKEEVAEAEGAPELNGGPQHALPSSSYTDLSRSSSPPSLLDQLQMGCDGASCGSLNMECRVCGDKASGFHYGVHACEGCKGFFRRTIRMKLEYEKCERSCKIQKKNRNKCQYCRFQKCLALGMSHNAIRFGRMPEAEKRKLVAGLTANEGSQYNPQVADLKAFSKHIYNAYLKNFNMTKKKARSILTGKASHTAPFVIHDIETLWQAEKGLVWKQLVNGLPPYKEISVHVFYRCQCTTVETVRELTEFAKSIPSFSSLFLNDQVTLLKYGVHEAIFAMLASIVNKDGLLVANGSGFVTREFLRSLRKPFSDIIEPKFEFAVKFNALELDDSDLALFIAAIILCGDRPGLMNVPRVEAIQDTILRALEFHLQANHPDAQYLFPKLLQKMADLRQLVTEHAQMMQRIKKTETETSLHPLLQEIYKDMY
As to conditions: statement in words; tests disclosed in WO2019105234A1; cited from earlier work.

Data set [3] is described as follows: Study on pharmacokinetics (PK) in rats. It counts as in vivo, male SD rats. As to conditions: PO, 5 mg/kg. How it is done: A sample of crystalline form A was administered to male SD rats by intragastric route (PO) to investigate its pharmacokinetic characteristics. The dose was 5 mg/kg, and 0.5% MC (methylcellulose sodium) was used as a solvent to prepare a suspension of crystalline form A. In the administration group, whole blood samples were collected before PO administration (0 h) and at time points of 0.083, 0.17, 0.25, 0.5, 1, 2, 4, 6, 8 and 24 hours after administration. The whole blood samples were anticoagulated with EDTA.K2, and plasma samples were obtained after centrifugation and stored at −80° C. for later testing. In this experiment, there were three animals in each group for parallel testing.
The plasma samples were treated by precipitating protein and then analyzed by LC-MS/MS. Using WinNonlin 6.3 software, the pharmacokinetic parameters was calculated by means of the non-compartmental model, and the results were shown in Table 1.

For a further data set, the system named is HEK293 cells. As to conditions: statement in words; tests disclosed in WO2019105234A1; cited from earlier work.
[4] abbreviates: rat, male SD rats, suspension in 0.5% MC, plasma.

On to `COc1nc2ccccc2cc1C(=O)/C=C/c1cc(C)c(OC(C)(C)C(=O)O)c(C)c1` [crystalline form A, (E)-2-(4-(3-(2-methoxyquinolin-3-yl)-3-oxo-1-propen-1-yl)-2,6-dimethylphenoxy)-2-methyl-propionic acid], for which the “toxicity to HepG2 cells” value in the data set on HepG2 cells is given as “low toxicity”. In addition, the “change of crystalline form by XRPD” value in data set [1] (after 30 days of storage) and in data set [2] (after 30 days of storage) was “did not change” throughout. Further, the Purity is listed as 99.51% in data set [1] (0th day); 99.53% in data set [1] (10th day); 99.54% in data set [1] (30th day); 99.51% in data set [2] (0th day); 99.53% in data set [2] (10th day); 99.54% in data set [2] (30th day). Also, in data set [1] (up to 30 days), the “change of purity under high humidity conditions” value was “no significant change”. The “inhibitory effect on hERG” value on hERG is reported as “no obvious inhibitory effect”. For the same compound, the “change of purity under high temperature conditions” value in data set [2] (up to 30 days) is reported as “no significant change”. The “agonistic effect on PPAR δ” value on PPAR δ is reported as “obvious agonistic effect”. Also, the “exposure in rat plasma” value in data set [3] is reported as “better exposure”. The same compound registered an AUC(0-t) in data set [3] (setting [4]) of 777 ng·h/mL. Besides, the concentration in data set [3] (setting [4]) peaked (Cmax) at 522 ng/mL. The “toxicity to HEK293 cells” value in the data set with HEK293 cells is “low toxicity”.
